The structures appear in SMILES notation.

In test [1] the test system is morningglory. Put plainly: Test A postemergence. Particulars: Ipomoea, post-emergence, 240 h, 0 to 100 scale (0 no effect, 100 complete control), approx. 10 d, read-out: Plant response rating, Morningglory; for pest or weed control at 125 g/ha: 125 g ai/ha; for pest or weed control at 500 g/ha: 500 g ai/ha. The class given is in vivo, Ipomoea spp. The gist of the method: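 For preemergence, seeds were sown in a loam soil-sand blend and given a directed soil spray of test chemical in a non-phytotoxic solvent mixture with surfactant. For postemergence, plants in pots of the same blend were sprayed with the same formulation at the one- to two-leaf stage, 2 to 10 cm tall.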

Test [2] relates to galium. Put plainly: Test D preemergence. Particulars: for Plant response rating: Galium: scale 0 to 100. It counts as in vivo, Galium aparine. The text has this: (§1) Seeds of plant species selected from bluegrass (annual bluegrass, Poa annua), blackgrass (Alopecurus myosuroides), canarygrass (Phalaris minor), chickweed (common chickweed, Stellaria media), galium (catchweed bedstraw, Galium aparine), bromegrass, down (downy bromegrass, Bromus tectorum), Russian thistle (Salsola kali), field poppy (Papaver rhoeas), field violet (Viola arvensis), foxtail, green (green foxtail, Setaria viridis), deadnettle (henbit deadnettle, Lamium amplexicaule), ryegrass, Ital. (Italian ryegrass, Lolium multiflorum), kochia (Kochia scoparia), lambsquarters (Chenopodium album), oilseed rape (Brassica napus), pigweed (Amaranthus retroflexus), chamomile (scentless chamomile, Matricaria inodora), speedwell (bird's-eye speedwell, Veronica persica), barley, spring (spring barley, Hordeum vulgare), wheat, spring (spring wheat, Triticum aestivum), buckwheat, wild (wild buckwheat, Polygonum convolvulus), wild mustard (Sinapis arvensis), oat, wild (wild oat, Avena fatua), radish, wild (wild radish, Raphanus raphanistrum), […]), barley, winter (winter barley, Hordeum vulgare), and wheat, winter (winter wheat, Triticum aestivum) were planted into a silt loam soil and treated preemergence with test chemicals formulated in a non-phytotoxic solvent mixture which included a surfactant. At the same time, these species were planted in pots containing Sunshine Redi-Earth® planting medium comprising spaghnum peat moss, vermiculite, starter nutrients and dolomitic limestone and treated with postemergence applications of the test chemicals formulated in the same manner. Plants ranged in height from 2 to 18 cm (1- to 4-leaf stage). Treated plants and controls were maintained in a controlled growth environment for 14 to 21 d after which time all species were compared to controls and visually evaluated. […] A dash (-) response means no test result.

Test [3] has as its system field poppy. Put plainly: Test D postemergence. Particulars: scale 0 to 100. It counts as in vivo, Papaver rhoeas.
Text: as §1

Test [4] relates to pigweed. Put plainly: Test D preemergence. Particulars: for Plant response rating: Pigweed: scale 0 to 100. The class given is in vivo, Amaranthus retroflexus.
Text: as §1

Test [5] has as its system pigweed. The test can be described thus: Test D postemergence. The class given is in vivo, Amaranthus retroflexus. The note with it: scale 0 to 100.
Text: as §1

Test [6] has as its system chamomile. The test can be described thus: Test D preemergence. It counts as in vivo, Matricaria inodora. Particulars: for Plant response rating: Chamomile: scale 0 to 100.
Text: as §1

The subject of test [7] is chamomile. The test can be described thus: Test D postemergence. Particulars: scale 0 to 100. The class given is in vivo, Matricaria inodora.
Text: as §1

The test system of test [8] is wheat, spring. Put plainly: Test D preemergence. The class given is in vivo, Triticum aestivum. The note with it: for Plant response rating: Wheat, Spring: scale 0 to 100.
Text: as §1

The test system of test [9] is wheat, winter. The test can be described thus: Test D preemergence. It counts as in vivo, Triticum aestivum. Particulars: for Plant response rating: Wheat, Winter: scale 0 to 100.
Text: as §1

Test [10] has as its system wild mustard. Put plainly: Test D postemergence. The class given is in vivo, Sinapis arvensis. Particulars: scale 0 to 100.
Text: as §1

The test system of test [11] is ryegrass, Ital. The test can be described thus: Test D postemergence. The class given is in vivo, Lolium multiflorum. The note with it: scale 0 to 100.
Text: as §1

The subject of test [12] is deadnettle. Put plainly: Test D postemergence. The class given is in vivo, Lamium amplexicaule. The note with it: scale 0 to 100.
Text: as §1

In test [13] the test system is ryegrass, Italian. Put plainly: Test C preemergence. It counts as in vivo, Lolium multiflorum. Particulars: for Ryegrass, Italian plant response rating (0 to 100): Preemergence, visual rating after 13 to 15 d; for Plant response rating (scale of 0 to 100 where 0 is no effect and 100 is complete control): Ryegrass, Italian, preemergence. From the text:
(§2) Seeds of plant species selected from blackgrass (Alopecurus myosuroides), ryegrass, Italian (Italian ryegrass, Lolium multiflorum), wheat (winter wheat, Triticum aestivum), galium (catchweed bedstraw, Galium aparine), corn (Zea mays), crabgrass, large (large crabgrass, Digitaria sanguinalis), foxtail, giant, (giant foxtail, Setaria faberii), johnsongrass (Sorghum halepense), lambsquarters (Chenopodium album), morningglory (Ipomoea coccinea), nutsedge, yellow (yellow nutsedge, Cyperus esculentus), pigweed (Amaranthus retroflexus), ragweed (common ragweed, Ambrosia elatior), soybean (Glycine max), barnyardgrass (Echinochloa crus-galli), oilseed rape (Brassica napus), waterhemp (common waterhemp, Amaranthus rudis), and velvetleaf (Abutilon theophrasti) were planted into a blend of loam soil and sand and treated preemergence with test chemicals formulated in a non-phytotoxic solvent mixture which included a surfactant. At the same time, plants selected from these crop and weed species and also chickweed (common chickweed, Stellaria media), oat, wild (wild oat, Avena fatua), and kochia (Kochia scoparia), were planted in pots containing Sunshine Redi-Earth® planting medium comprising spaghnum peat moss, vermiculite, starter nutrients and dolomitic limestone and treated with postemergence applications of test chemicals formulated in the same manner. Plants ranged in height from 2 to 18 cm (1- to 4-leaf stage) for postemergence treatments. […] A dash (-) response means no test result.

The test system of test [14] is barnyardgrass. Put plainly: Test C preemergence. The class given is in vivo, Echinochloa crus-galli. The note with it: for Plant response rating (scale of 0 to 100 where 0 is no effect and 100 is complete control): Barnyardgrass, preemergence; for Barnyardgrass plant response rating (0 to 100): Preemergence, visual rating after 13 to 15 d.
Text: as §2

The mark [15] stands for this setting: 16 g ai/ha, 0 is no effect, 100 is complete control.

Turning to `Cn1nc(-c2ccc(F)cc2)nc1C(O)c1ccnc(C(F)(F)F)c1` (stereo not drawn) [Compound 14, α-[3-(4-fluorophenyl)-1-methyl-1H-1,2,4-triazol-5-yl]-2-(trifluoromethyl)-4-pyridinemethanol], in [1], the pest or weed control at 125 g/ha is 40% and the pest or weed control at 500 g/ha was 80%.
Taken in the same sequence, the figures for `CCn1nc(-c2ccc(F)cc2)nc1C(=O)c1ccnc(C(F)(F)F)c1` [Compound 19, [1-ethyl-3-(4-fluorophenyl)-1H-1,2,4-triazol-5-yl][2-(trifluoromethyl)-4-pyridinyl]methanone] were 0% and 0%.
With `COc1nc(-c2ccc(Cl)cc2)nn1Cc1ccnc(C(F)(F)F)c1` [Compound 28], in [2] (setting [15]), the “Plant response rating (0 to 100), Galium” value was 65. The “Plant response rating: Galium” value in [2] (62 g ai/ha) is given as 75; in [2] (125 g ai/ha), 80. In addition, the “Plant response rating: Field Poppy” value is 65 in test [3] (16 g ai/ha), 65 in test [3] (31 g ai/ha), 65 in [3] (62 g ai/ha) and 70 in [3] (125 g ai/ha). The “Plant response rating (0 to 100), Pigweed” value in [4] (setting [15]) was determined as 100. The “Plant response rating: Pigweed” value in [4] (62 g ai/ha), in [4] (125 g ai/ha), in [5] (16 g ai/ha), in [5] (31 g ai/ha), in test [5] (62 g ai/ha) and in test [5] (125 g ai/ha) was 100 in each case. In addition, the “Plant response rating (0 to 100), Chamomile” value in test [6] (setting [15]) was determined as 0. Also, the “Plant response rating: Chamomile” value in test [6] (31 g ai/ha) is listed as 20; in test [6] (62 g ai/ha), 75; in test [6] (125 g ai/ha), 95; in [7] (16 g ai/ha) it was 10; in [7] (31 g ai/ha), 15; in test [7] (62 g ai/ha), 15. In test [7] (125 g ai/ha), the “Plant response rating: Chamomile” value is listed as 25. Further, the “Plant response rating (0 to 100), Wheat, Spring” value in test [8] (setting [15]) came out at 10. Moreover, the figures for the “Plant response rating: Wheat, Spring” value in test [8] (62 g ai/ha) and in [8] (125 g ai/ha) were 20 and 25, respectively. The “Plant response rating (0 to 100), Wheat, Winter” value in test [9] (setting [15]) was found to be 15. For the same compound, the figures for the “Plant response rating: Wheat, Winter” value in test [9] (62 g ai/ha) and in test [9] (125 g ai/ha) were 25 and 20, respectively. For the same compound, the “Plant response rating: Mustard, Wild” value was 90 in test [10] (16 g ai/ha), 100 in [10] (31 g ai/ha), 100 in [10] (62 g ai/ha) and 100 in [10] (125 g ai/ha). The “Plant response rating: Ryegrass, Ital.” value was 20 in test [11] (16 g ai/ha), 20 in [11] (31 g ai/ha), 30 in test [11] (62 g ai/ha) and 45 in [11] (125 g ai/ha). Further, the “Plant response rating: Deadnettle” value came out at 50 in test [12] (16 g ai/ha), 60 in [12] (31 g ai/ha), 70 in [12] (62 g ai/ha) and 75 in test [12] (125 g ai/ha).
As for `COc1nc(-c2ccc(F)cc2)nn1Cc1ccnc(C(F)(F)F)c1` [Compound 9, 4-[[3-(4-fluorophenyl)-5-methoxy-1H-1,2,4-triazol-1-yl]methyl]-2-(trifluoromethyl)pyridine], the figures for the “Ryegrass, Italian plant response rating (0 to 100)” value (“Ryegrass … (0 to 100)” for short) in test [13] (31 g ai/ha) and in test [13] (62 g ai/ha) were 5 and 25, respectively. In addition, the “Plant response rating (scale of 0 to 100 where 0 is no effect and 100 is complete control)” value in [13] (125 g ai/ha) is given as 65; in test [13] (250 g ai/ha), 85; in test [14] (125 g ai/ha) it was 70; in test [14] (250 g ai/ha), 85. In test [1], the pest or weed control at 125 g/ha is 90%. Further, the pest or weed control at 500 g/ha in test [1] came out at 100%. In addition, the entries for the “Barnyardgrass plant response rating (0 to 100)” value in [14] (31 g ai/ha) and in test [14] (62 g ai/ha) were 5 and 35, respectively.
Consider `CS(=O)(=O)c1nc(-c2ccc(F)cc2)nn1Cc1ccnc(C(F)(F)F)c1` [Compound 29, 4-[[3-(4-fluorophenyl)-5-(methylsulfonyl)-1H-1,2,4-triazole-1-yl]methyl]-2-(trifluoromethyl)pyridine], for which, in test [1], the pest or weed control at 125 g/ha was determined as 0% and the pest or weed control at 500 g/ha was 0%.
For the compound `CCCc1nc(-c2ccc(F)cc2)nn1Cc1ccnc(C(F)(F)F)c1` [Compound 6, 4-[[3-(4-fluorophenyl)-5-propyl-1H-1,2,4-triazol-1-yl]methyl]-2-(trifluoromethyl)pyridine], the “Ryegrass … (0 to 100)” value in [13] (31 g ai/ha) was 30; in test [13] (62 g ai/ha), 70. For the same compound, the “Plant response rating (scale of 0 to 100 where 0 is no effect and 100 is complete control)” value in [13] (125 g ai/ha) is given as 80; in [13] (250 g ai/ha), 100; in test [14] (125 g ai/ha), 95; in [14] (250 g ai/ha), 98. For the same compound, the pest or weed control at 125 g/ha in test [1] was determined as 100%. In [1], the pest or weed control at 500 g/ha was found to be 100%. Moreover, the “Barnyardgrass plant response rating (0 to 100)” value in test [14] (31 g ai/ha) was found to be 50; in [14] (62 g ai/ha), 75.
With `COc1nc(-c2ccccc2)nn1Cc1ccnc(C(F)(F)F)c1` [Compound 32], the “Ryegrass … (0 to 100)” value in test [13] (31 g ai/ha) and in test [13] (62 g ai/ha) was 0 each time. The “Plant response rating (scale of 0 to 100 where 0 is no effect and 100 is complete control)” value in test [13] (125 g ai/ha) came to 0; in [13] (250 g ai/ha), 10; in test [14] (125 g ai/ha) it was 10; in [14] (250 g ai/ha) it was 75. The “Barnyardgrass plant response rating (0 to 100)” value in [14] (31 g ai/ha) is recorded as 0; in [14] (62 g ai/ha), 5.
As for `Cn1nc(-c2ccc(F)cc2)nc1Oc1cccc(C(F)(F)F)c1` [Compound 5, 3-(4-fluorophenyl)-1-methyl-5-[3-(trifluoromethyl)phenoxy]-1H-1,2,4-triazole], in test [1], the pest or weed control at 125 g/ha came out at 50% and the pest or weed control at 500 g/ha is 100%.
For `CCCn1nc(-c2ccc(F)cc2)nc1Cc1ccnc(C(F)(F)F)c1` [Compound 17, 4-[[3-(4-fluorophenyl)-1-propyl-1H-1,2,4-triazol-5-yl]methyl]-2-(trifluoromethyl)pyridine], in that order: 70% and 100%.
For `CCn1nc(-c2ccc(F)cc2)nc1C(O)c1ccnc(C(F)(F)F)c1` (stereo not drawn) [Compound 15, α-[1-Ethyl-3-(4-fluorophenyl)-1H-1,2,4-triazol-5-yl]-2-(trifluoromethyl)-4-pyridinemethanol], in that order: 0% and 10%.
